Laboratory results from article PMC9782245, “Synthesis and Structural Optimization of 2,7,9-Trisubstituted purin-8-ones as FLT3-ITD Inhibitors” (International Journal of Molecular Sciences, 2022).
“And” between values parts separate entries of the source, which are not always exact repeats. Equal values may be shown once.

Legend:
MV4-11 cells [1] = test: Resazurin-based viability assay, MV4-11; assay type: cell-based, Human; conditions: Homo sapiens, MV4-11; 72 h, resazurin; at least duplicate experiments
Description: (§1) In parallel to kinase assays, we measured the effect of compounds on the viability of cancer cell lines MV4-11 and K562 using a resazurin-based assay. MV4-11 is an AML cell line dependent on a constitutively activated FLT3-ITD kinase with high sensitivity to FLT3 inhibition, K562 cells (chronic myelogenous leukemia) are independent on FLT3.
(§2) Human cell lines were obtained from the European Collection of Authenticated Cell Cultures (K562) and Cell lines service (MV4-11) and were cultivated according to the provider’s instructions. Briefly, cells were maintained in RPMI-1640 (MV4-11) or DMEM (K562) supplemented with 10% fetal bovine serum, penicillin (100 U/mL), and streptomycin (0.1 mg/mL) at 37 °C in 5% CO2. For the viability assays, cells were treated in triplicate with six different doses of each compound for 72 h. After treatments, the resazurin (Sigma Aldrich, St. Louis, MO, USA) solution was added for 4 h, and the fluorescence of resorufin corresponding to live cells was measured at 544/590 nm (excitation/emission) using a Fluoroskan Ascent microplate reader (Labsystems). The GI50 value, the drug concentration lethal to 50% of the cells, was calculated from the dose-response curves that resulted from the assays.

K562 cells [2] = test: Resazurin-based viability assay, K562; assay type: cell-based; conditions: Homo sapiens, 72 h, at least duplicate experiments
Description: as §1, §2

CDK2/E = CDK2/E (Homo sapiens, UniProt P24941); test: Kinase inhibition assay CDK2/E; assay type: biochemical; conditions: at least duplicate experiments; read-out: IC50 CDK2/E
Method: (§3) Newly prepared compounds 12–15 were assayed for inhibition of FLT3-ITD kinase as well as CDK4 and CDK2, known off-targets of structurally related compounds. We observed that CDK4 was sensitive to nearly all compounds with IC50 values in mid-nanomolar values.
(§4) CDK/cyclin complexes and FLT3 kinases were assayed as previously described. Protein kinase selectivity was evaluated at a single concentration (1 µM) by screening against 30 enzymes at Eurofins Discovery (France).

CDK4/D1 = CDK4/D1 (Homo sapiens, UniProt P11802); test: Kinase inhibition assay CDK4/D1; assay type: biochemical; conditions: at least duplicate experiments; read-out: IC50 CDK4/D1
Chain of CDK4/D1 (P11802 whole entry): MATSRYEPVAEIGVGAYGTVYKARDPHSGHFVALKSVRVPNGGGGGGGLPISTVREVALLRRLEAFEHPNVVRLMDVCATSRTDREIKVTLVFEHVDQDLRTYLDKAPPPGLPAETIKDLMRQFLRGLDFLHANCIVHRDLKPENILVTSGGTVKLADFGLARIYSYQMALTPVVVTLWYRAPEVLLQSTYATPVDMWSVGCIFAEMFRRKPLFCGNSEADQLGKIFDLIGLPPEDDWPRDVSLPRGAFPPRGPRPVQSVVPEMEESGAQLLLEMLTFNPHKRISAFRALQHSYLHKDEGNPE
Chain of CDK4/D1 (P24385 whole entry partner): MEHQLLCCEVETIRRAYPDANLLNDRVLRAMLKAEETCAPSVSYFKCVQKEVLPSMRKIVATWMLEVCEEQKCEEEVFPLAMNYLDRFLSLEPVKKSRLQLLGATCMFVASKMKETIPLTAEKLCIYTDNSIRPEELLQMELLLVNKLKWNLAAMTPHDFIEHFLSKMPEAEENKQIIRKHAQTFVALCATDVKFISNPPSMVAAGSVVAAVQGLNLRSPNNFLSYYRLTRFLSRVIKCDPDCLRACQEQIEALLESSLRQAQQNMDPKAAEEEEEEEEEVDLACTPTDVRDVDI
Method: as §3, §4

FLT3-ITD = biological target: T1, FLT3-ITD (Homo sapiens, UniProt P36888, ITD); test: Kinase inhibition assay FLT3-ITD; assay type: biochemical; conditions: at least duplicate experiments; read-out: IC50 FLT3-ITD
T1 sequence (P36888 27-993): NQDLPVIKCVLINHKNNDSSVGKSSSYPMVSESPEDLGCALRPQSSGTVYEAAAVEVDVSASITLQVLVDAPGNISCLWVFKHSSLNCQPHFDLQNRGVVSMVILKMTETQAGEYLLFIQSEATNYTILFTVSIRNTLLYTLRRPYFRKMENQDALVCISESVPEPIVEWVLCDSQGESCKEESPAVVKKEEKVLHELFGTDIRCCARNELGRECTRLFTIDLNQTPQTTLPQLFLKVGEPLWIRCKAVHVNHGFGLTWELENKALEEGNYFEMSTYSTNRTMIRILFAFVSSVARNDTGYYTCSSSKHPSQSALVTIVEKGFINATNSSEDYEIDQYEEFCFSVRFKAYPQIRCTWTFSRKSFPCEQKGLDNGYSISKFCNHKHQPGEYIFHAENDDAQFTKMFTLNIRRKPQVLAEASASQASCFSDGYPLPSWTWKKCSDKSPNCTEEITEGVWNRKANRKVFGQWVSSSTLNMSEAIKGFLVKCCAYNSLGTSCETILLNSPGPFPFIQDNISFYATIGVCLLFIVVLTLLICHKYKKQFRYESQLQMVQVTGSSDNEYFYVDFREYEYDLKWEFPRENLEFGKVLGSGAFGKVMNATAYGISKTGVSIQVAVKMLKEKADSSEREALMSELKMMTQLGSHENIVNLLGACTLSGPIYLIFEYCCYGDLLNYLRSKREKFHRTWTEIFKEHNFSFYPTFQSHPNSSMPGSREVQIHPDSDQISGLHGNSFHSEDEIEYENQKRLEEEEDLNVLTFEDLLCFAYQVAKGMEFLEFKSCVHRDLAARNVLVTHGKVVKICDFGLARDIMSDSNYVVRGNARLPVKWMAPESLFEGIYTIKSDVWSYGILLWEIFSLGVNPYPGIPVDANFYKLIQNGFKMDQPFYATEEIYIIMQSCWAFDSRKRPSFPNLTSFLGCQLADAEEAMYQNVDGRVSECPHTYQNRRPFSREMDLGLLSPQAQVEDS
Method: as §3, §4

K562 cells [3] = test: Flow cytometric cell cycle analysis, K562; assay type: cell-based, Human; conditions: 24 h; for effect on cell cycle (G1 arrest) in K562: 200 nM
Method: (§5) FLT3 inhibition causes G1-cell cycle arrest in FLT3-dependent cell lines such as MV4-11; we, therefore, performed flow cytometric analysis to evaluate cell cycle changes in MV4-11 and K562 cell lines treated with 200 nM compounds for 24 h. […] Specifically, 18 compounds arrested >85% of cells in the G1 phase, which is >30% cells in the G1 phase of the cell cycle than in control cells (Figure 4A).
(§6) Finally, we performed flow cytometric analysis with different concentrations of 15a in MV4-11 and MOLM13 (another FLT-ITD positive cell line) and K562 cell lines treated for 24 h (Figure 5).
(§7) Asynchronously growing cells were seeded into a 96-well plate and, after a preincubation period, treated with tested compounds for 24 h. The treated cells were stained directly (or after trypsinization for the adherent cells) with the 5× staining solution (17 mM trisodium citrate dihydrate, 0.5% IGEPAL CA-630, 7.5 mM spermine tetrahydrochloride, and 2.5 mM Tris; pH 7.6 containing […] propidium iodide). After the staining, DNA content was analyzed using flow cytometry using a 488 nm laser (BD FACS Verse with software BD FACSuite^TM, version 1.0.6). Cell cycle distribution was analyzed using ModFit LT (Verity Software House, version 5.0). Palbociclib, trilaciclib, and quizartinib were purchased from MedChemExpress, Monmouth Junction, NJ, USA.

MV4-11 cells [4] = test: Flow cytometric cell cycle analysis, MV4-11; assay type: cell-based, Human; conditions: 24 h; for effect on cell cycle (G1 arrest) in MV4-11: 200 nM
Method: as §5, §6, §7

MOLM13 cells = test: Flow cytometric cell cycle analysis, MOLM13; assay type: cell-based; conditions: increasing doses, 24 h
Method: as §6
as §7, with “5.0).” for “5.0). Palbociclib, trilaciclib, and quizartinib were purchased from MedChemExpress, Monmouth Junction, NJ, USA.”

[5] = system: oncogenic variants of FLT3; parameters: method as in PMID 28418845; conditions: cited from earlier work

Compound | GI50 (MV4-11 cells [1]) [nM] | GI50 (K562 cells [2]) [nM] | IC50 (CDK2/E) | IC50 (CDK4/D1) [nM] | IC50 (FLT3-ITD) [nM] | effect on cell cycle (G1 arrest) in K562 (K562 cells [3]) | melting point [°C] | effect on cell cycle (G1 arrest) in MV4-11 (MV4-11 cells [4]) | cells in the G1 phase, MV4-11 (MV4-11 cells [4]; increasing doses) | cell cycle changes in K562 (K562 cells [3]; different concentrations) | cells in the G1 phase, MOLM13 (MOLM13 cells) | affinity to oncogenic variants of FLT3 [5]
CC1CCC(n2c(C(F)(F)F)nc3cnc(Nc4ccc(N5CCNCC5)cc4)nc32)CC1 (stereo not shown) [12c] | 440 | 8210 | 230 nM | 12 | 85 | moderate G1 block | 228 to 230 |  |  |  |  | 
Cn1c(=O)[nH]c2nc(Nc3ccc(N4CCNCC4)cc3)ncc21 [14a] | 5650 | > 100000 | > 20000 nM | > 20000 | 6900 |  |  | did not significantly affect the cell cycle |  |  |  | 
Cn1c(=O)n(C2CCCCCCCCCCC2)c2nc(Nc3ccc(N4CCNCC4)cc3)ncc21 [14j] | 1810 | 3590 | > 1000 nM and 1020 nM | 338 | 75 |  |  | did not significantly affect the cell cycle |  |  |  | 
Cc1ccccc1-n1c(=O)n(C)c2cnc(Nc3ccc(N4CCNCC4)cc3)nc21 [14n] | 1250 | 16700 | 540 nM | 1870 | 2940 |  | 152 to 154 | did not significantly affect the cell cycle |  |  |  | 
CC(=O)c1c(C)c2cnc(Nc3ccc(N4CCNCC4)cn3)nc2n(C2CCCC2)c1=O [palbociclib, reference compound] |  |  |  |  |  | significantly arrest both cell lines in the G1 phase |  | significantly arrest both cell lines in the G1 phase |  |  |  | 
CC(C)(C)c1cc(NC(=O)Nc2ccc(-c3cn4c(n3)sc3cc(OCCN5CCOCC5)ccc34)cc2)no1 [quizartinib, reference compound] |  |  |  |  |  | arrested selectively only MV4-11 |  | arrested selectively only MV4-11 | up to 90% | did not show any changes | up to 90% | 
CN1CCN(c2ccc(Nc3ncc4cc5n(c4n3)C3(CCCCC3)CNC5=O)nc2)CC1 [trilaciclib] |  |  |  |  |  |  |  |  |  |  |  | low nanomolar affinity
